According to patent publication US9340577B2, “HLA binding motifs and peptides and their uses” (priority 1992, dated 2016):
Like-named read-outs stand apart in the source and are kept apart here. Residues, ends and D or L forms follow the SMILES beside them. No end group written: not given here.

Legend:
B*3502 = B*3502 (Homo sapiens, UniProt P01889, A329T/A93T/A95T/C349S/D138N/D201E/D98Y/E176V/E187L/E204Q/E69T/I218V/K202T/L119I/L133F/Q94N/R155S/R180L/S121R/S35A/S48A/T118I/V127L/V306I/V36M/Y91F); assay: biochemical; type: binding
B*3503 = B*3503 (Homo sapiens, UniProt P01889, A329T/A93T/A95T/C349S/D201E/D98Y/E176V/E187L/E204Q/E69T/I218V/K202T/L119I/Q94N/R155S/R180L/S121R/S35A/S48A/T118I/V127L/V306I/V36M/Y140F/Y91F); assay: biochemical; type: binding
B*0702 (B*0701) = B*0702 (B*0701) (Homo sapiens, UniProt P01889); assay: biochemical; type: binding
B*5401 (B54) = B*5401 (B54) (Homo sapiens, UniProt P01889, A329T/C349S/D138N/D201E/E176V/E187T/E204Q/E69G/I76V/K202T/L119W/R155S/R180L/S121T/S35A/S48A/V127L/V306I/V36M/Y140L); settings: read-out: BINDING CAPACITY (IC50 nM) B*5401
B*3501 = B*3501 (Homo sapiens, UniProt P01889, A329T/A93T/A95T/C349S/D201E/D98Y/E176V/E187L/E204Q/E69T/I218V/K202T/L119I/Q94N/R155S/R180L/S121R/S35A/S48A/T118I/V127L/V306I/V36M/Y140S/Y91F); assay: biochemical
DRB1*1501 = DRB1*1501 (Homo sapiens, UniProt P01903+P01911); assay: biochemical; type: binding; settings: read-out: Binding affinity DRB1 *1501
DRB1*0802 = DRB1*0802 (Homo sapiens, UniProt P01903+P01911, A100R/A103L/A169T/F76Y/H45Y/I96F/K41T/L162R/M171V/P40S/Q125H/Q178H/Q39Y/Q99D/R218S/R42G/S66Y/V115G/W38E); assay: biochemical; type: binding; settings: read-out: DRB1*0802
DRB5*0101 = DRB5*0101 (Homo sapiens, UniProt P01903+Q30154)
DRB3*0101 = DRB3*0101 (Homo sapiens, UniProt P01903+P79483); assay: biochemical; type: binding; settings: read-out: DRB3*0101
DRB1*1302 = DRB1*1302 (Homo sapiens, UniProt P01903+P01911, A100E/A169T/K41T/L162R/M171V/P40S/Q125H/Q178H/Q39Y/Q99D/R42S/S66N/T262R/V115G/W38E/Y61H); assay: biochemical; type: binding; settings: read-out: DRB1*1302
DR4w4 (DRB1*0401) = DR4w4 (DRB1*0401) (Homo sapiens, UniProt P01903+P01911, A100K/A169T/F76Y/I96L/K127E/L162R/M171V/N62H/P40V/Q125Y/R42H/S133A/S149N/S66Y/V115G/V209L/W38E); assay: biochemical; type: binding; settings: read-out: Binding affinity DRB1 *0401
DR7 (DRB1*0701) = DR7 (DRB1*0701) (Homo sapiens, UniProt P01903+P01911, A100R/A102G/A103Q/D57E/D86V/E43K/F76Y/K127E/L162R/M171V/P40G/Q125H/Q99D/R33Q/R42Y/R54Q/S133A/S66F/T210M/V115G/Y107V/Y59L/Y89S); assay: biochemical; type: binding; settings: read-out: DRB1*0701
DR1 (DRB1*0101) = DR1 (DRB1*0101) (Homo sapiens, UniProt P01903+P01911, A100R/D57E/F55L/F60I/F76Y/I96L/L162R/M171V/P40L/Q125E/R42F/V115G/Y59C); assay: biochemical; type: binding; settings: read-out: DRB1*0101
DRB1*0901 = DRB1*0901 (Homo sapiens, UniProt P01903+P01911, A100R/A103E/D57H/D86V/F55Y/F60I/F76Y/I96F/K127E/L162R/M171V/P40D/Q125H/Q99R/R33Q/R42F/S133A/S66N/T210M/V115G/W38K/Y107V/Y59G/Y89S); assay: biochemical; type: binding; settings: read-out: DRB1*0901
DRB4*0101 = DRB4*0101 (Homo sapiens, UniProt P01903+P13762, G164S); assay: biochemical; type: binding; settings: read-out: Binding affinity DRB4 *0101
A02 supertype = type: binding, human
H-2Db = H-2Db (Mus musculus, UniProt P01899); assay: biochemical; type: binding, murine
DR5 = settings: read-out: binding affinity for DR5
DR2 = settings: read-out: binding affinity for DR2
A01 supertype = type: binding, human
B*0801 = B*0801 (Homo sapiens, UniProt P01889, A93T/A95T/D138N/E176V/E187T/K202T/Q94N/R180D/S35A/V36M/Y33D/Y91F); settings: read-out: IC50 for B*0801
A*6801 = A*6801 (Homo sapiens, UniProt P04439, A269V/D185E/E176V/E277Q/E87N/F33Y/G231S/I121M/I166T/I218V/L180W/L300P/L318F/N151K/P208A/P217A/Q86R/R169H/T345S); assay: biochemical; type: binding
A*3301 = A*3301 (Homo sapiens, UniProt P04439, A270S/D185E/E176V/E277Q/E87N/F33T/G231S/H175R/I121M/I218V/I322F/K168Q/K210R/L300P/L318F/M331R/P217A/Q86R/Q94H/R138Q/T323A/T345S/T97I/V358M/Y195H); assay: biochemical; type: binding
A*2601 = A*2601 (Homo sapiens, UniProt P04439, A114D/A173T/A270S/D101N/D185E/E277Q/E87N/F33Y/G231S/I121R/I218V/K168Q/L180W/L300P/L318F/P208A/P217A/Q86R/Q94H/R138Q/S129P/T187R/T323A/T345S/V100A/V358M); assay: biochemical; type: binding
A*2902 = A*2902 (Homo sapiens, UniProt P04439, A270S/D101N/D185E/E176V/E277Q/E87Q/F33T/G231S/H175R/I121M/I218V/I322F/K168Q/L300P/L318F/M331R/P208A/P217A/Q86L/T323A/T345S/V100A/V358M); assay: biochemical; type: binding
A31 (A*3101) = A31 (A*3101) (Homo sapiens, UniProt P04439, A270S/D185E/E176V/E277Q/F33T/G231S/G80R/H175R/I121M/I218V/I322F/K168Q/L300P/L318F/M331R/P217A/Q94H/R138Q/T323A/T345S/T97I/V358M); assay: biochemical; type: binding
HLA-A1 (A*0101) = HLA-A1 (A*0101) (Homo sapiens, UniProt P04439, A114D/A174V/A182V/D101N/D185E/E176A/E190D/L180R/Q94H/R68K/S129P/T187R/V100A/V91M/W191G); assay: biochemical; type: binding
A*3002 = A*3002 (Homo sapiens, UniProt P04439, D101N/D140H/D185E/E176R/F33S/G80R/H175R/K168Q/Q94H/R138E/R41S/V100E); assay: biochemical; type: binding
A03/11 supertype = type: binding, human
HLA-A11 (A*1101) = HLA-A11 (A*1101) (Homo sapiens, UniProt P04439, A114D/D185E/E176A/F33Y/L180Q/S129P/T187R); assay: biochemical; type: binding

Compound: CC(C)C[C@H](NC(=O)[C@H](C)NC(=O)[C@@H](NC(=O)[C@H](CC(C)C)NC(=O)[C@H](C)NC(=O)[C@@H](NC(=O)[C@@H](NC(=O)[C@H](CCCNC(=N)N)NC(=O)[C@@H]1CCCN1C(=O)[C@H](C)N)[C@@H](C)O)C(C)C)[C@@H](C)O)C(=O)O [APRTVALTAL]
- IC50 (B*3502): > 30000 nM
- IC50 (B*3503): > 30000 nM
- IC50 (B*0702 (B*0701)): 4.2 nM
- IC50 (B*5401 (B54)): 17300 nM
- IC50 (B*3501): > 30000 nM

Compound: CSCC[C@H](NC(=O)[C@H](Cc1ccccc1)NC(=O)[C@H](CCCCN)NC(=O)[C@@H](NC(=O)[C@@H](NC(=O)[C@H](CCCCN)NC(=O)[C@H](CCC(N)=O)NC(=O)[C@@H]1CCCN1C(=O)[C@H](Cc1c[nH]cn1)NC(=O)[C@@H](NC(=O)[C@H](CCC(N)=O)NC(=O)[C@H](C)NC(=O)[C@@H](N)CS)C(C)C)C(C)C)[C@@H](C)O)C(=O)N[C@@H](CC(C)C)C(=O)N[C@@H](CS)C(=O)O [Peptide 68.0078]
- IC50 (DRB1*1501): 809 nM
- IC50 (DRB1*0802): 8730 nM
- IC50 (DRB5*0101; read-out: Binding affinity DRB5 *0101): 1230 nM
- IC50 (DRB3*0101): > 13500 nM
- IC50 (DRB1*1302): 2190 nM
- IC50 (DR4w4 (DRB1*0401)): 2570 nM
- IC50 (DR7 (DRB1*0701)): 32300 nM
- IC50 (DR1 (DRB1*0101)): 10200 nM
- IC50 (DRB1*0901): 34900 nM
- IC50 (DRB4*0101): 604 nM

Compound: CC(C)C[C@H](NC(=O)[C@H](Cc1c[nH]c2ccccc12)NC(=O)[C@H](CCCCN)NC(=O)CNC(=O)[C@H](CC(C)C)NC(=O)[C@H](CS)NC(=O)[C@H](Cc1c[nH]cn1)NC(=O)[C@H](CS)NC(=O)[C@@H](NC(=O)[C@H](CCCNC(=N)N)NC(=O)[C@H](CCC(=O)O)NC(=O)[C@H](CC(C)C)NC(=O)[C@H](CO)NC(=O)[C@H](Cc1c[nH]cn1)NC(=O)[C@H](C)NC(=O)[C@@H](N)CCC(N)=O)C(C)C)C(=O)NCC(=O)N[C@@H](Cc1c[nH]cn1)C(=O)N1CCC[C@H]1C(=O)N[C@@H](CC(=O)O)C(=O)N[C@@H](CCCCN)C(=O)O [Peptide 868.01] (H-QAHSLERVCHCLGKWLGHPDK-OH)
- IC50 (DRB5*0101; read-out: DRB5*0101): 2500 nM
- IC50 (DR7 (DRB1*0701)): > 250000 nM

Compound: CC[C@H](C)[C@H](NC(=O)[C@H](CS)NC(=O)[C@@H](NC(=O)[C@@H](N)Cc1ccc(O)cc1)[C@@H](C)O)C(=O)N[C@@H](CC(=O)O)C(=O)NCC(=O)N[C@@H](CCC(N)=O)C(=O)N[C@@H](CS)C(=O)N[C@H](C(=O)N[C@H](C(=O)O)C(C)C)[C@@H](C)O [Peptide 1593.58] (H-YTCIDGQCTV-OH)
- Degeneracy (A02 supertype): 3

Compound: CSCC[C@H](NC(=O)[C@H](Cc1c[nH]c2ccccc12)NC(=O)[C@@H](NC(=O)[C@H](Cc1ccc(O)cc1)NC(=O)[C@H](Cc1ccccc1)NC(=O)[C@H](CC(=O)O)NC(=O)[C@H](Cc1ccc(O)cc1)NC(=O)[C@@H](NC(=O)[C@@H](N)CO)C(C)C)C(C)C)C(=O)O [Peptide F138.03]
- IC50 (H-2Db): 3370 nM

Compound: CC[C@H](C)[C@H](NC(=O)CNC(=O)[C@@H](NC(=O)[C@H](Cc1ccccc1)NC(=O)[C@H](CCCCN)NC(=O)[C@H](CO)NC(=O)[C@H](CC(N)=O)NC(=O)[C@H](C)NC(=O)[C@H](CCCCN)NC(=O)[C@@H](NC(=O)[C@H](Cc1ccc(O)cc1)NC(=O)[C@@H](N)CCC(N)=O)[C@@H](C)CC)[C@@H](C)CC)C(=O)N[C@H](C(=O)N[C@@H](CCC(=O)O)C(=O)O)[C@@H](C)O [TT830-843]
- IC50 (DR5): 10 to 100 nM
- IC50 (DR2): 10 to 100 nM

Compound: AFKDLFVVY
- Degeneracy (A01 supertype): 2

Compound: FLKDYQLL [HIV gp 586-593 Y1>F, Q5>Y]
- IC50 (B*0801): 14 nM

Compound: HIGPGRAFY [Peptide 1595.03]
- IC50 (A*6801): 29 nM
- Degeneracy (A01 supertype): 3
- IC50 (A*3301): 4500 nM
- IC50 (A*2601): 58 nM
- IC50 (A*2902): 157 nM
- IC50 (A31 (A*3101)): 1420 nM
- IC50 (HLA-A1 (A*0101)): 1310 nM
- IC50 (A*3002): 11 nM
- Degeneracy (A03/11 supertype): 2
- IC50 (HLA-A11 (A*1101)): 691 nM

Compound: HTQELFISNIV [Peptide 9013.0316]
- Degeneracy (A02 supertype): 1

Compound: LTISYGRKK [Peptide 66.0060]
- Degeneracy (A03/11 supertype): 2

Compound: SIQFFGEL [Peptide F079.04]
- IC50 (H-2Db): > 44000 nM

Compound: SIQFFGERAL [Peptide F079.03]
- IC50 (H-2Db): > 44000 nM
